For the experiment, the target named is T1, PylRSc (truncated PylRS, residues 185-454); mutant DFRSc (Methanosarcina mazei, UniProt Q8PWY1, S193R/N346G/C348Q/V401G, form not given).
T1 construct: gene pylS; C-terminal catalytic domain, residues 185-454, expressed in E. coli BL21 (DE3), Ni-NTA purified (DFRSc)
T1 sequence (Q8PWY1 185-454 S193R/N346G/C348Q/V401G, form open): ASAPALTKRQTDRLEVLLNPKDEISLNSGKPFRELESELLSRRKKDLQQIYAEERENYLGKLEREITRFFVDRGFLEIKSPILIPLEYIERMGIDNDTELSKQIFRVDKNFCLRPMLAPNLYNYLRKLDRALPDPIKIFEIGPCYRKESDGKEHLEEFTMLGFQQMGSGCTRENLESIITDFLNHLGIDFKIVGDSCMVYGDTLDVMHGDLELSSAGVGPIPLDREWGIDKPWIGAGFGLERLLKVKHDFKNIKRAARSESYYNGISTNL
Nature of the experiment: ATP-[…]PPi exchange assay (amino acid activation). Format: biochemical. As to conditions: apparent, 2 mM ATP, 1 mM PPi, 10 mM MgCl2, pH 7.2, 37°C, header prints μM × 10^3, text mM, read-out: K M , μM × 10^3.
Turning to `N[C@@H](Cc1cccc(Cl)c1)C(=O)O` [compound 4, L-Cl-Phe], the Km stood at 5380 ± 1280 µM.

For `N[C@@H](Cc1cccc(Br)c1)C(=O)O` [compound 6, L-Br-Phe], the Km came out at 9800 ± 1650 µM.

On to `N[C@@H](Cc1cccc(C(F)(F)F)c1)C(=O)O` [compound 2, L-CF3-Phe], for which the Km came to 7120 ± 1670 µM.

The values are drawn from publication PMC10613524, “Rational design of the genetic code expansion toolkit for in vivo encoding of D-amino acids” (Frontiers in Genetics, 2023).
